Values joined by “and” are separate entries in the source; they are usually repeats but may differ in a detail not shown here. Equal entries are not always repeated. Toxic doses and inconclusive results are not listed. Cut-off read from the data, not from the text of the source: active = T/C of 150% or more; inactive = T/C below 125%.
Test system: L1210 leukemia ip in BDF1 mice, survival T/C
Test: NCI In Vivo Anticancer Drug Screen. Data for tumor model L1210 Leukemia (intraperitoneal) in B6D2F1 (BDF1) mice
Details: endpoint: mean survival time, higher = longer survival
Procedure, shortened: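 In this screen, tumor-bearing mice given compound are compared to those given vehicle, and their survival values are reported as a treated-to-control quotient.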

[1] = dose: 50.0 mg/kg/injection, schedule: Q01DX009 (ip), vehicle: saline
[2] = dose: 100.0 mg/kg/injection, schedule: Q01DX009 (ip), vehicle: saline
[3] = dose: 100.0 mg/kg/injection, schedule: Q04DX003 (ip), vehicle: saline
[4] = dose: 200.0 mg/kg/injection, schedule: Q04DX003 (ip), vehicle: saline
[5] = dose: 100.0 mg/kg/injection, schedule: Q01DX009 (ip), vehicle: Klucel (hydroxypropylcellulose) (HPC)
[6] = dose: 200.0 mg/kg/injection, schedule: Q01DX009 (ip), vehicle: Klucel (hydroxypropylcellulose) (HPC)
[7] = dose: 400.0 mg/kg/injection, schedule: Q01DX009 (ip), vehicle: Klucel (hydroxypropylcellulose) (HPC)
[8] = dose: 100.0 mg/kg/injection, schedule: Q01DX001 (ip), vehicle: carboxymethylcellulose (CMC)
[9] = dose: 100.0 mg/kg/injection, schedule: Q01DX001 (ip), vehicle: saline with Tween-80
[10] = dose: 200.0 mg/kg/injection, schedule: Q01DX001 (ip), vehicle: saline with Tween-80
[11] = dose: 400.0 mg/kg/injection, schedule: Q01DX001 (ip), vehicle: saline with Tween-80
[12] = dose: 100.0 mg/kg/injection, schedule: Q04DX002 (ip), vehicle: Klucel (hydroxypropylcellulose) (HPC)
[13] = dose: 200.0 mg/kg/injection, schedule: Q04DX002 (ip), vehicle: Klucel (hydroxypropylcellulose) (HPC)
[14] = dose: 400.0 mg/kg/injection, schedule: Q04DX002 (ip), vehicle: Klucel (hydroxypropylcellulose) (HPC)
[15] = dose: 50.0 mg/kg/injection, schedule: Q01DX001 (ip), vehicle: carboxymethylcellulose (CMC)
[16] = dose: 200.0 mg/kg/injection, schedule: Q01DX001 (ip), vehicle: carboxymethylcellulose (CMC)

Measured: T/C

NC(CCc1c[nH]c(=O)[nH]c1=O)C(=O)O (centres undefined)
inactive: dose: 50.0 mg/kg/injection, schedule: Q01DX001 (ip), vehicle: saline 104 % of control | dose: 100.0 mg/kg/injection, schedule: Q01DX001 (ip), vehicle: saline 100 % of control | dose: 200.0 mg/kg/injection, schedule: Q01DX001 (ip), vehicle: saline 98 % of control | dose: 400.0 mg/kg/injection, schedule: Q01DX001 (ip), vehicle: saline 110 % of control

CC(C)(C)NCC1CCCC1=O (centres undefined)
inactive: dose: 100.0 mg/kg/injection, schedule: Q04DX002 (ip), vehicle: gum acacia 101 % of control | dose: 200.0 mg/kg/injection, schedule: Q04DX002 (ip), vehicle: gum acacia 105 % of control

CCC1N2CCc3cc(OC)c(OC)cc3C2CCC1(O)Cc1ccccn1 (centres undefined)
inactive: dose: 100.0 mg/kg/injection, schedule: Q04DX003 (ip), vehicle: carboxymethylcellulose (CMC) 101 % of control | dose: 200.0 mg/kg/injection, schedule: Q04DX003 (ip), vehicle: carboxymethylcellulose (CMC) 101 % of control

O=C(Nc1ccc(CCC2=NCCCN2)cc1)c1ccc(C(=O)Nc2ccc(CCC3=NCCCN3)cc2)cc1
inactive: dose: 60.0 mg/kg/injection, schedule: Q01DX Z (ip), vehicle: saline 118 % of control | dose: 120.0 mg/kg/injection, schedule: Q01DX Z (ip), vehicle: saline 110 % of control | dose: 240.0 mg/kg/injection, schedule: Q01DX Z (ip), vehicle: saline 112 % of control

O=C1NC(=O)c2ccccc21
inactive: dose: 25.0 mg/kg/injection, schedule: Q01DX009 (ip), vehicle: saline 94 % of control | [1] 99 % of control | [2] 94 % of control and 96 % of control | [3] 95 % of control | dose: 200.0 mg/kg/injection, schedule: Q01DX009 (ip), vehicle: saline 95 % of control and 108 % of control | [4] 98 % of control | dose: 400.0 mg/kg/injection, schedule: Q01DX009 (ip), vehicle: saline 95 % of control and 96 % of control | dose: 400.0 mg/kg/injection, schedule: Q04DX003 (ip), vehicle: saline 106 % of control

CCOC(=O)Nc1ccc(OC)cc1
inactive: [5] 96 % of control | dose: 100.0 mg/kg/injection, schedule: Q04DX003 (ip), vehicle: Klucel (hydroxypropylcellulose) (HPC) 103 % of control | [6] 98 % of control | dose: 200.0 mg/kg/injection, schedule: Q04DX003 (ip), vehicle: Klucel (hydroxypropylcellulose) (HPC) 97 % of control | [7] 93 % of control | dose: 400.0 mg/kg/injection, schedule: Q04DX003 (ip), vehicle: Klucel (hydroxypropylcellulose) (HPC) 98 % of control

O=C(C(F)F)C(F)F
inactive: [1] 91 % of control | [2] 91 % of control | [3] 106 % of control | [4] 104 % of control

COC(=O)CCC(=O)c1cc(OC)c2cc3ccccc3cc2c1OC
inactive: dose: 100.0 mg/kg/injection, schedule: Q01DX001 (ip), vehicle: other 96 % of control | dose: 200.0 mg/kg/injection, schedule: Q01DX001 (ip), vehicle: other 96 % of control | dose: 400.0 mg/kg/injection, schedule: Q01DX001 (ip), vehicle: other 100 % of control

c1ccc2nc(OCCN3CC3)ccc2c1
inactive: [8] 108 % of control

C/C=C/CCCCCCCC
inactive: [9] 93 % of control | [10] 95 % of control | [11] 96 % of control

CC1C(=O)CCCC1=O
inactive: [5] 101 % of control | [6] 101 % of control | [7] 95 % of control

CCCCCCCCCCC(OO)C(=O)OC(C)(C)C (centres undefined)
inactive: [12] 95 % of control | [13] 91 % of control | [14] 91 % of control

O=C1C(Cl)=C(Nc2ccc3cn[nH]c3c2)C(=O)c2ccccc21
inactive: [15] 102 % of control | [8] 100 % of control | [16] 102 % of control

C(=C\c1ccccc1)/C=N/Nc1nnc(N/N=C/C=C/c2ccccc2)c2ccccc12
inactive: [15] 102 % of control | [8] 94 % of control | [16] 102 % of control | dose: 400.0 mg/kg/injection, schedule: Q01DX001 (ip), vehicle: carboxymethylcellulose (CMC) 90 % of control

NC(N)=NCC(CCN1CCCCC1)c1cccc2ccccc12 (centres undefined)
inactive: dose: 5.0 mg/kg/injection, schedule: Q01DX009 (ip), vehicle: saline 105 % of control | dose: 10.0 mg/kg/injection, schedule: Q01DX009 (ip), vehicle: saline 100 % of control | dose: 12.5 mg/kg/injection, schedule: Q04DX002 (ip), vehicle: saline 93 % of control | dose: 20.0 mg/kg/injection, schedule: Q01DX009 (ip), vehicle: saline 106 % of control | dose: 25.0 mg/kg/injection, schedule: Q04DX002 (ip), vehicle: saline 93 % of control

CCCCCCCCCCCCCCCCCCCC(=O)COS(C)(=O)=O
inactive: [12] 88 % of control | [13] 88 % of control | [14] 88 % of control

CC(=O)NC1(C(=O)O)CSSC1
inactive: dose: 50.0 mg/kg/injection, schedule: Q01DX005 (ip), vehicle: saline 102 % of control | dose: 100.0 mg/kg/injection, schedule: Q01DX005 (ip), vehicle: saline 100 % of control | dose: 200.0 mg/kg/injection, schedule: Q01DX005 (ip), vehicle: saline 93 % of control | dose: 400.0 mg/kg/injection, schedule: Q01DX005 (ip), vehicle: saline 102 % of control

NNCc1cc(Cl)c2cccnc2c1O
inactive: [12] 105 % of control | [13] 105 % of control | [14] 99 % of control

Cc1ccc2[nH]c3ccccc3c(=O)c2c1
inactive: dose: 75.0 mg/kg/injection, schedule: Q01DX001 (ip), vehicle: saline 93 % of control | dose: 150.0 mg/kg/injection, schedule: Q01DX001 (ip), vehicle: saline 91 % of control | dose: 300.0 mg/kg/injection, schedule: Q01DX001 (ip), vehicle: saline 90 % of control

O=C(O)Cc1cccc(=O)n1Cc1ccccc1
inactive: dose: 75.0 mg/kg/injection, schedule: Q04DX003 (ip), vehicle: Klucel (hydroxypropylcellulose) (HPC) 98 % of control | dose: 150.0 mg/kg/injection, schedule: Q04DX003 (ip), vehicle: Klucel (hydroxypropylcellulose) (HPC) 100 % of control | dose: 300.0 mg/kg/injection, schedule: Q04DX003 (ip), vehicle: Klucel (hydroxypropylcellulose) (HPC) 102 % of control

Cc1ccc(S(=O)(=O)OCC(c2ccccc2)C(F)(F)F)cc1 (centres undefined)
inactive: [9] 94 % of control | [10] 100 % of control | [11] 101 % of control

Clc1nc2cc(Cl)c(Cl)cc2[nH]1
inactive: dose: 100.0 mg/kg/injection, schedule: Q04DX003 (ip), vehicle: acetone 95 % of control | dose: 200.0 mg/kg/injection, schedule: Q04DX003 (ip), vehicle: acetone 95 % of control

CC(C)c1ccc(/C(=N\NC(N)=S)C2CC2)cc1
inactive: dose: 1.0 mg/kg/injection, schedule: Q01DX Z (ip), vehicle: methylcellulose (MC) 93 % of control | dose: 2.0 mg/kg/injection, schedule: Q01DX Z (ip), vehicle: methylcellulose (MC) 91 % of control | dose: 5.0 mg/kg/injection, schedule: Q01DX Z (ip), vehicle: methylcellulose (MC) 94 % of control | dose: 10.0 mg/kg/injection, schedule: Q01DX Z (ip), vehicle: methylcellulose (MC) 102 % of control

Source: PubChem BioAssay AID248 (DTP/NCI, 2004)
